The values below come from ChEMBL document CHEMBL5291721, “A preclinical secondary pharmacology resource illuminates target-adverse drug reaction associations of marketed drugs” (Nat Commun, 2023).

In assay [1] the target is T1, Adenosine receptor A3 (Homo sapiens, UniProt P0DMS8).
T1 sequence (P0DMS8 whole entry): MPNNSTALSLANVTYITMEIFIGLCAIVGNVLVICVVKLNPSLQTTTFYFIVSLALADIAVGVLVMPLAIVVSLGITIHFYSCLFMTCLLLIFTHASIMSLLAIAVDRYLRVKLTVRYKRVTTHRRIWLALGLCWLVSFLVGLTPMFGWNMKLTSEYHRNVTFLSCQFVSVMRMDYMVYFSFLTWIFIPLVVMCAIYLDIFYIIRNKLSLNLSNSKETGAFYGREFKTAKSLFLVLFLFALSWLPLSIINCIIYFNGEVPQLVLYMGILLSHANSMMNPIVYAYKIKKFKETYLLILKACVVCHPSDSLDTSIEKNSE

For assay [2], the target named is Beta-1 adrenergic receptor (Homo sapiens, UniProt P08588). The assay is classed as functional.
Assay [3] has as its target T2, Type-1 angiotensin II receptor (Homo sapiens, UniProt P30556).
T2 sequence (P30556 whole entry): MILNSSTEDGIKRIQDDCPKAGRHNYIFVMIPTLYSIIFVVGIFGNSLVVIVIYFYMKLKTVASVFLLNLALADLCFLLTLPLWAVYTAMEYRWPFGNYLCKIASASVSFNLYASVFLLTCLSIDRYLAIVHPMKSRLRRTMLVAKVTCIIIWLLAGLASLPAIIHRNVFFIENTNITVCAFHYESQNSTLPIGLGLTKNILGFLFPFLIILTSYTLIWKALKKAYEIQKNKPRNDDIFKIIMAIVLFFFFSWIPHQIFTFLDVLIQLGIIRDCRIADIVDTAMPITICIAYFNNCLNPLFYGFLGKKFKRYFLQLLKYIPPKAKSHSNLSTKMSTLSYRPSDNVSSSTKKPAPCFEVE

Assay [4] has as its target Vasopressin V2 receptor (Homo sapiens, UniProt P30518).
The target in assay [5] is Melanocortin receptor 3 (Homo sapiens, UniProt P41968).
Chain of Melanocortin receptor 3 (P41968 whole entry): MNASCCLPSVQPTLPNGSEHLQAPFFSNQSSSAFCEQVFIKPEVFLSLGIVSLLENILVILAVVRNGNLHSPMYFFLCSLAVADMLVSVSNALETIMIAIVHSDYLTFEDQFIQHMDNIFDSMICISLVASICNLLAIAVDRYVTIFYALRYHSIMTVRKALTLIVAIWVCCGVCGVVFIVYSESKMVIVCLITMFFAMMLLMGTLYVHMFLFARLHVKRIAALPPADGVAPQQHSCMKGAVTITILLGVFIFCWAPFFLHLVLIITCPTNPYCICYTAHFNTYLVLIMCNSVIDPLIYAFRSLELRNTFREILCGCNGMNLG
Assay [6] addresses Sodium-dependent noradrenaline transporter (Homo sapiens, UniProt P23975).
Assay [7] concerns the target Histamine H3 receptor (Homo sapiens, UniProt Q9Y5N1).
Assay [8] concerns the target T3, Beta-2 adrenergic receptor (Homo sapiens, UniProt P07550).
For assay [9], the target named is Voltage-dependent L-type calcium channel subunit alpha-1C (Rattus norvegicus, UniProt P22002). In kind it is functional.
Assay [10] has as its target T4, Muscarinic acetylcholine receptor M2 (Homo sapiens, UniProt P08172).
T4 sequence (P08172 whole entry): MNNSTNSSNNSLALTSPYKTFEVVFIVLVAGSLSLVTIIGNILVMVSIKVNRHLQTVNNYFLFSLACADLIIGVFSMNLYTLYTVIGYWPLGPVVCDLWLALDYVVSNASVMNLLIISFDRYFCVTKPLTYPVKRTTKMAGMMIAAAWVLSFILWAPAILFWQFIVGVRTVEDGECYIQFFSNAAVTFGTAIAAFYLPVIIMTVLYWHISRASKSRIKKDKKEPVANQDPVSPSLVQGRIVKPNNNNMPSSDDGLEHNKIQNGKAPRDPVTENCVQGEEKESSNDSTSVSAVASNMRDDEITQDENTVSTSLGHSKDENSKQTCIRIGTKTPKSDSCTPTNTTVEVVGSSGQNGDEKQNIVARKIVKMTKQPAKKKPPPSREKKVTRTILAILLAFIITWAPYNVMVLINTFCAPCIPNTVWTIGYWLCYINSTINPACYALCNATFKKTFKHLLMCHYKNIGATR
The assay is classed as functional, cell-based.

For assay [11], the target named is Histamine H2 receptor (Homo sapiens, UniProt P25021). The assay is classed as functional, cell-based.
Chain of Histamine H2 receptor (P25021 whole entry): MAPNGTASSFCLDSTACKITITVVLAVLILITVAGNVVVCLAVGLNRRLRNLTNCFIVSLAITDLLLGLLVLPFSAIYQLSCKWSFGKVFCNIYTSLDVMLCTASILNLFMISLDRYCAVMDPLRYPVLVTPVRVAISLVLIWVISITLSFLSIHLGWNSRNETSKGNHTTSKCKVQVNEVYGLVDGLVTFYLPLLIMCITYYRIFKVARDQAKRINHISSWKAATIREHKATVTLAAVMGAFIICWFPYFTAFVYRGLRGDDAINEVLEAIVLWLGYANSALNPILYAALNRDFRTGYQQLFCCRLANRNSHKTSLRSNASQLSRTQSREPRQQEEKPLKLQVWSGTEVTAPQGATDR
Assay [12] concerns the target T5, 5-hydroxytryptamine receptor 2B (Homo sapiens, UniProt P41595). In kind it is functional, cell-based.
Assay [13] has as its target T5, 5-hydroxytryptamine receptor 2B. In kind it is functional, cell-based. This is another data set of the same source.
Assay [14] has as its target Delta-type opioid receptor (Homo sapiens, UniProt P41143).
In assay [15] the target is 3',5'-cyclic-AMP phosphodiesterase 4D (Homo sapiens, UniProt Q08499). In kind it is functional.
Chain of 3',5'-cyclic-AMP phosphodiesterase 4D (Q08499 whole entry): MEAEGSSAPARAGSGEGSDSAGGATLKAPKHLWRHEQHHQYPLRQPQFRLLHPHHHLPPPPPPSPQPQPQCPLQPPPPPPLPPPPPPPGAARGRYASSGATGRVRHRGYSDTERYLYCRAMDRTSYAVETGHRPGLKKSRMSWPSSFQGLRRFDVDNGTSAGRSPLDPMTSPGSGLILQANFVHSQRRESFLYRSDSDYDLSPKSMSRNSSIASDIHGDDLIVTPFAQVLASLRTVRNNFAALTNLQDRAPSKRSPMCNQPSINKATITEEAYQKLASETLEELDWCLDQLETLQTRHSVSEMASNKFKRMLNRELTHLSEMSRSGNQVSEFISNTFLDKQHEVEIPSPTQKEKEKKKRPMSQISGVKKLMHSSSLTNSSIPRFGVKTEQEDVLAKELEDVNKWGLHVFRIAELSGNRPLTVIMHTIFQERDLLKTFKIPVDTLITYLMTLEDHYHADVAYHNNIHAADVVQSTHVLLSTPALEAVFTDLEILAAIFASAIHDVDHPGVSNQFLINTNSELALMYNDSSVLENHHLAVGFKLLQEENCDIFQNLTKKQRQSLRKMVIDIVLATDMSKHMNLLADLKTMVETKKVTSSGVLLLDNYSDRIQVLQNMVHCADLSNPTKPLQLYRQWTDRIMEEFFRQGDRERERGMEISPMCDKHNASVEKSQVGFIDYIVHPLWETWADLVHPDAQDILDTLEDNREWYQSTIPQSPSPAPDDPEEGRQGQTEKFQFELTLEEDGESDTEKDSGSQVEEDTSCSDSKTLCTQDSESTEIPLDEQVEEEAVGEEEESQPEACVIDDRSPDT
For assay [16], the target named is T6, Thromboxane A2 receptor (Homo sapiens, UniProt P21731).
T6 sequence (P21731 whole entry): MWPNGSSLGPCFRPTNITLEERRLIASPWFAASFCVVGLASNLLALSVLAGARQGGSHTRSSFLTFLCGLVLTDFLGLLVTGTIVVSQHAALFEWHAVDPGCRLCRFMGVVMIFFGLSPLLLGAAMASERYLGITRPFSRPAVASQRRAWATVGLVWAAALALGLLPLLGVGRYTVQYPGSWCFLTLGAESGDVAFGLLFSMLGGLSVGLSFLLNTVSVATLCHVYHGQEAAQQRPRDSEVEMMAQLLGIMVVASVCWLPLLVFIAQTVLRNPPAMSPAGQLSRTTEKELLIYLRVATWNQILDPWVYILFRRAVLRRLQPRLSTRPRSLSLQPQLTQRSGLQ

Assay [17] addresses T7, Alpha-1A adrenergic receptor (Homo sapiens, UniProt P35348).
T7 sequence (P35348 whole entry): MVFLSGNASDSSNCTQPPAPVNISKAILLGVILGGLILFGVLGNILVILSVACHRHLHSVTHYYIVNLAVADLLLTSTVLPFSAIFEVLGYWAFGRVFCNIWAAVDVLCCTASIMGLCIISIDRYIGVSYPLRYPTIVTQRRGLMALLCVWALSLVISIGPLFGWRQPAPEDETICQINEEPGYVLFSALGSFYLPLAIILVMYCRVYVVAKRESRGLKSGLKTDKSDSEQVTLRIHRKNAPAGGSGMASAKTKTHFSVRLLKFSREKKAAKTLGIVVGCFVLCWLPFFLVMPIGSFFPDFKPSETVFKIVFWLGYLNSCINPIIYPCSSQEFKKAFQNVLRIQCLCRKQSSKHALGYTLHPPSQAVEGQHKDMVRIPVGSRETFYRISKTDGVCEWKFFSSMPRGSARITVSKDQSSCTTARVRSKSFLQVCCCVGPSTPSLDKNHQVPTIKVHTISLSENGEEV
The assay is classed as functional, cell-based.

In assay [18] the target is T3, Beta-2 adrenergic receptor. The assay is classed as functional, cell-based.
For assay [19], the target named is Histamine H1 receptor (Homo sapiens, UniProt P35367).
Chain of Histamine H1 receptor (P35367 whole entry): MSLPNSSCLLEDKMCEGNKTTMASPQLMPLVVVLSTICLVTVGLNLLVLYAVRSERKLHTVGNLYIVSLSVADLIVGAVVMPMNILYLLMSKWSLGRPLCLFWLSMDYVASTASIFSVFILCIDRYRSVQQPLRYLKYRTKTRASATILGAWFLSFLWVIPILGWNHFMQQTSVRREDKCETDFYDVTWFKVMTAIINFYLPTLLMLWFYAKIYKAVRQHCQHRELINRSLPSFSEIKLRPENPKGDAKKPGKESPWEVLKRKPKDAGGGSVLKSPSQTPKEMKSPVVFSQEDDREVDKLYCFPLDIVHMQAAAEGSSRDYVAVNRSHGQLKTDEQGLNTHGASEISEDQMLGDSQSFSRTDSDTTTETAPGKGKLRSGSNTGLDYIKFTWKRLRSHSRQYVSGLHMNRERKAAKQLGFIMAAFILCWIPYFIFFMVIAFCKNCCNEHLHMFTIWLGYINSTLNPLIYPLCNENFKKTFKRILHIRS
Assay [20] concerns the target T7, Alpha-1A adrenergic receptor. In kind it is functional, cell-based. The source holds these as a separate data set.

Broadly, the AC50 is the concentration at which the activity in the assay is half-maximal.
Also: assay procedure not described here.

Chain of Vasopressin V2 receptor (P30518 whole entry): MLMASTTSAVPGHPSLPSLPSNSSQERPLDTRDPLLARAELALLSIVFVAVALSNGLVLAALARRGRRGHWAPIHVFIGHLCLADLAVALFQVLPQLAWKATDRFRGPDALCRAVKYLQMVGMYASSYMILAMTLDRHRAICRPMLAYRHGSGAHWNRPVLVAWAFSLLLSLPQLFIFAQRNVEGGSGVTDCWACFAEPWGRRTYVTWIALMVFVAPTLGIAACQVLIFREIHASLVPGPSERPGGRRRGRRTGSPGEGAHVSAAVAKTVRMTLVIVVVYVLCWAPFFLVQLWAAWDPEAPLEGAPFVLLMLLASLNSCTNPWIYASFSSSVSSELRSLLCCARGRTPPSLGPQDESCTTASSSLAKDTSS
T5 sequence (P41595 whole entry): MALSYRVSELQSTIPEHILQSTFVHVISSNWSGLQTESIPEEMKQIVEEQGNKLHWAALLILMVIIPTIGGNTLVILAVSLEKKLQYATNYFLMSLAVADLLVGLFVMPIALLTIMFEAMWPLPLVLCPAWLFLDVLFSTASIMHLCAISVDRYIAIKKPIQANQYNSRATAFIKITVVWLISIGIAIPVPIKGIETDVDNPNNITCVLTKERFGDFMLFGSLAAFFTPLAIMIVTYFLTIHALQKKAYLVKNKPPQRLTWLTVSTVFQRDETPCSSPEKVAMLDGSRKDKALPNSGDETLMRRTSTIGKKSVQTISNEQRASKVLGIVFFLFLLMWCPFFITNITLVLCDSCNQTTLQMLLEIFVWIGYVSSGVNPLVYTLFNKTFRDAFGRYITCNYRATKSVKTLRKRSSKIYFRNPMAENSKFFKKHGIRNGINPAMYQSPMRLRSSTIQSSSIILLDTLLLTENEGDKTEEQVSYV
Chain of Histamine H3 receptor (Q9Y5N1 whole entry): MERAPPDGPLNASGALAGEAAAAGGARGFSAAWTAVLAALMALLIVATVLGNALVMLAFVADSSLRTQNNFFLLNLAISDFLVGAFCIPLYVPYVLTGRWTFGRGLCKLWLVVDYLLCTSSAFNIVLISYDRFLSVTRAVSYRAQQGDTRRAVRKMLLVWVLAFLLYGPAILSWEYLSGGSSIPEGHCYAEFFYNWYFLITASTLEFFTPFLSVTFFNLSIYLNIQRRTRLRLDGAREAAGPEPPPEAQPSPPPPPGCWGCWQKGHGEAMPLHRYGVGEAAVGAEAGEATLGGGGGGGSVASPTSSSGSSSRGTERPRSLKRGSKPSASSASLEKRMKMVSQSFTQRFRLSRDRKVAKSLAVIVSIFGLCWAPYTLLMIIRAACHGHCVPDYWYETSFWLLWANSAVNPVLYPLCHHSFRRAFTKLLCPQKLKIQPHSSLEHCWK
Chain of Delta-type opioid receptor (P41143 whole entry): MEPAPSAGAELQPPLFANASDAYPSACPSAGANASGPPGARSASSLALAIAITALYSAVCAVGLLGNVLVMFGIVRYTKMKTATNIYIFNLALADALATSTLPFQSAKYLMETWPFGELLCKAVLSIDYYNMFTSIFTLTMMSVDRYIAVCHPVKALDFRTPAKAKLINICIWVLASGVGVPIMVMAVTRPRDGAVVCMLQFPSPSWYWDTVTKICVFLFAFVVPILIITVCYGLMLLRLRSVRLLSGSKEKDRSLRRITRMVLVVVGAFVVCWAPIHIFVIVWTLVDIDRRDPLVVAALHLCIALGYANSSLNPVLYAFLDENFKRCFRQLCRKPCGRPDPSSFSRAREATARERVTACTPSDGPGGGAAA
Chain of Sodium-dependent noradrenaline transporter (P23975 whole entry): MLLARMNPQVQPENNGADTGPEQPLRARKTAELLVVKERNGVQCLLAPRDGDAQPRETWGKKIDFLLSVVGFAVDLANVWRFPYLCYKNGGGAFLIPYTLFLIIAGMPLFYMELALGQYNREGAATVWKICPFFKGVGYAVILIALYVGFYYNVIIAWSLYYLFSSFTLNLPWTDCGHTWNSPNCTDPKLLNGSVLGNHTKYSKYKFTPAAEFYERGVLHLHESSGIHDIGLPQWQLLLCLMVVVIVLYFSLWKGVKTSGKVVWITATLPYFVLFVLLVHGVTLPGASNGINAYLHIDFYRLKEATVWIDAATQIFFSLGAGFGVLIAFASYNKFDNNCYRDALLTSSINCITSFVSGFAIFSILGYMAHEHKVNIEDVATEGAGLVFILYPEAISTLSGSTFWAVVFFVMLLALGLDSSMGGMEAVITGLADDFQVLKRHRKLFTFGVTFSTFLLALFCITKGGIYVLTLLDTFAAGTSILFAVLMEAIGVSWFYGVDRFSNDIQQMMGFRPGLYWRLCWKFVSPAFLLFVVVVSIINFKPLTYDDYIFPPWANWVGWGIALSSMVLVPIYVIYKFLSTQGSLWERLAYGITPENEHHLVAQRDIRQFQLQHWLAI
T3 sequence (P07550 whole entry): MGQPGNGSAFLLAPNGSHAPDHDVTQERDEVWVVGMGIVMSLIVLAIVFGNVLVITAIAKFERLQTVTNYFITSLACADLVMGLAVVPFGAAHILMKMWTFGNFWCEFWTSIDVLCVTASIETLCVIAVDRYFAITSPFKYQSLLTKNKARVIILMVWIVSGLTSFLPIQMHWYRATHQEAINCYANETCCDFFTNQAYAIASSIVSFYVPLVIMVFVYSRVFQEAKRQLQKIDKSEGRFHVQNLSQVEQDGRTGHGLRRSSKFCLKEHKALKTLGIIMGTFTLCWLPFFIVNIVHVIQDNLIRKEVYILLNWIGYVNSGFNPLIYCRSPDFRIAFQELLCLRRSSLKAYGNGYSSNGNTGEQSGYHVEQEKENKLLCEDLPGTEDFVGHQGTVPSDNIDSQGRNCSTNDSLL

Take `CCC(CC)(CC(=O)Nc1cccc(/C=C/c2nc(C3CCC3)cs2)c1)C(=O)O`: the AC50 in assay [1] is 13.9 µM; in assay [2], 14 µM; in [3] it was more than 30 µM; in assay [4], more than 30 µM; in assay [5] it was more than 30 µM; in assay [6] it was more than 30 µM. In assay [7], this compound had an AC50 of more than 30 µM.
As for `CCCC1O[C@@H]2C[C@H]3[C@@H]4CCC5=CC(=O)C=C[C@]5(C)[C@H]4[C@@H](O)C[C@]3(C)[C@]2(C(=O)CO)O1` (some centres not stated) [BUDESONIDE], the AC50 in assay [1], in assay [2], in assay [8], in assay [3], in assay [4] and in [9] was more than 10 µM throughout. The AC50 was more than 10 µM in assay [10]; more than 10 µM in assay [11]; more than 10 µM in assay [12]; more than 10 µM in assay [13]; more than 10 µM in assay [5]; more than 30 µM in [14]. Also, the AC50 in [15] is more than 30 µM; in [16] it was more than 10 µM; in assay [6] it was more than 10 µM; in assay [7] it was more than 10 µM.
As to `C=CCN1C[C@H](C(=O)N(CCCN(C)C)C(=O)NCC)C[C@@H]2c3cccc4[nH]cc(c34)C[C@H]21` [CABERGOLINE], the AC50 is more than 10 µM in [1]; 0.599 µM in assay [17]; more than 10 µM in assay [2]; more than 30 µM in assay [18]; more than 10 µM in [8]; more than 10 µM in assay [3]. In addition, the AC50 was more than 10 µM in assay [4]; more than 10 µM in [9]; more than 30 µM in [10]; 6.8 µM in assay [19]; 4.23 µM in [11]; 0.189 µM in assay [12]. Moreover, the AC50 is more than 10 µM in assay [5]; more than 30 µM in [14]; more than 30 µM in [15]; more than 10 µM in [16]; 8.7 µM in assay [6].
`NC1CCN(c2c(F)cc3c(=O)c(C(=O)O)cn(C4CC4)c3c2Cl)C1` (configuration not stated) [CLINAFLOXACIN] gave an AC50 in assay [14] of 18 µM.
`CCOc1ccc(Cc2cc([C@@H]3O[C@H](CO)[C@@H](O)[C@H](O)[C@H]3O)ccc2Cl)cc1` [DAPAGLIFLOZIN]: the AC50 in assay [1] is more than 30 µM; in assay [2], more than 10 µM; in assay [8] it was more than 10 µM; in assay [3] it was more than 30 µM; in assay [4], more than 30 µM; in [9], more than 10 µM. For the same compound, the AC50 is more than 10 µM in [19]; more than 30 µM in [5]; more than 30 µM in [14]; more than 30 µM in [15]; more than 30 µM in [16]; more than 30 µM in assay [6]. This compound returned an AC50 in assay [7] of more than 10 µM.
`O=[N+]([O-])O[C@@H]1CO[C@H]2[C@@H]1OC[C@@H]2O` [ISOSORBIDE MONONITRATE]: the AC50 was more than 30 µM in [1]; more than 10 µM in [2]; more than 10 µM in assay [8]; more than 30 µM in assay [3]; more than 30 µM in assay [4]; more than 10 µM in assay [9]. Moreover, the AC50 in assay [10] is more than 10 µM; in assay [19] it was more than 10 µM; in assay [11], more than 10 µM; in assay [12] it was more than 10 µM; in assay [13] it was more than 10 µM; in [5], more than 30 µM. Besides, the AC50 in [14] is more than 30 µM; in assay [15] it was more than 30 µM; in assay [16] it was more than 30 µM; in [6], more than 10 µM; in assay [7], more than 10 µM.
`COc1cc2nc(N3CCN(C(=O)c4ccco4)CC3)nc(N)c2cc1OC` [PRAZOSIN]: the AC50 was more than 30 µM in assay [1]; more than 10 µM in assay [2]; more than 10 µM in assay [8]; 7.8 µM in assay [3]; more than 30 µM in assay [4]; more than 10 µM in assay [9]. The AC50 in assay [10] is more than 10 µM; in assay [12], more than 10 µM; in assay [13] it was 26 µM; in [5], more than 30 µM; in assay [14] it was more than 10 µM; in assay [15], more than 30 µM. In addition, the AC50 was more than 30 µM in assay [16], more than 10 µM in [6] and more than 10 µM in [7].
As to `O=[N+]([O-])c1cn2c(n1)OC[C@@H](OCc1ccc(OC(F)(F)F)cc1)C2` [PRETOMANID], the half-maximal activity concentration (AC50) is more than 30 µM in assay [1]; more than 10 µM in [2]; more than 10 µM in [8]; more than 30 µM in [3]; more than 30 µM in assay [4]; more than 10 µM in assay [9]. Further, the AC50 is more than 10 µM in assay [19]; more than 30 µM in [5]; more than 10 µM in [14]; more than 10 µM in [15]; more than 30 µM in assay [16]; more than 10 µM in [6].
For `CCCCCNC(=N)N/N=C/c1c[nH]c2ccc(OC)cc12` [TEGASEROD], the AC50 was 15.3 µM in assay [1]; more than 30 µM in assay [17]; 7.02 µM in [2]; 7.36 µM in assay [8]; 1.8 µM in [3]; 20.3 µM in assay [4]. For the same compound, the AC50 in assay [9] is more than 30 µM; in assay [10], more than 10 µM; in [19], more than 30 µM; in assay [11] it was more than 30 µM; in assay [12] it was more than 30 µM; in [13] it was 0.343 µM. In addition, the AC50 in assay [5] is 11.5 µM; in assay [14] it was more than 30 µM; in assay [15], 19 µM; in assay [16], 8.39 µM; in assay [6], 0.495 µM; in [20], 2.1 µM. Moreover, the activity in assay [7] was half-maximal at 27.2 µM (AC50).
